Experimental data as given in patent publication US20240199571A1, “THIOPHENE COMPOUND AND APPLICATION THEREOF” (MEDSHINE DISCOVERY INC., priority 2021, published 2024).
Structures can show the parent of a compound that is named as a salt.

Tests used:
human LSD1 = human LSD1 (Homo sapiens (Human), UniProt O60341); assay: Experiment 1B: in vitro LSD1 enzyme activity, enzyme-coupled fluorescence (HRP/Amplex Red), H3(1-21)K4me2 peptide 10 μM (Reaction Biology); format: biochemical; conditions: histone H3(1-21)K4me2 peptide 10 μM
Description: Experiment 1B: Evaluation of Enzyme Activity
Testing unit: Reaction Biology Corp., USA.
The purpose of the assay was to test the in vitro inhibitory activity of the compounds against LSD1. The enzyme used in the assay was human LSD1, and the standard substrate was histone H3(1-21)K4me2 peptide (10 μM). The activity of the compounds was determined by the enzyme-coupling fluorescent method by the combined detection of H2O2 generated after the reaction of LSD1 by horseradish peroxidase (HRP) and the fluorescent reagent Amplex Red. Starting from 10 μM, the compounds were 3-fold diluted to detect the IC50 values of the compounds at 10 concentrations. The enzyme and substrate were incubated for 30 minutes before the compound was added to the substrate to start the reaction. Fluorescence detector: EnVision, excitation wavelength: Ex/Em=535/590 nM.

NCI-H1417 cells = assay: Experiment 2: inhibition of NCI-H1417 cell proliferation (CellTiter-Glo, 10 days); format: cell-based; conditions: Homo sapiens, 240 h, 10 days incubation
Description: Experiment 2: Evaluation of Inhibitory Activity on NCI-H1417 Cell Proliferation
Experimental purpose: To test the inhibitory activity of test compounds on NCI-H1417 cell proliferation.
Experimental materials: RPMI 1640 medium, fetal bovine serum, Promega CellTiter-Glo reagent. The NCI-H1417 cell line was purchased from ATCC. Envision multilabel plate reader (PerkinElmer).
Experimental method: The compounds were dissolved to 10 mM and 5-fold diluted with DMSO in the compound plates, starting with a concentration of 2 mM. 3-fold serial dilution was performed with Bravo to 10 concentrations. Then 250 nL of the compound solution was transferred to the upper and lower double duplicate wells of a blank 384 cell plate with Echo. To each well containing the transferred 250 nL of DMSO/compound was added a cell suspension of 1000 cells/50 μL per well, and the compound was diluted 200-fold, i.e., resulting in an initial working concentration of 10 μM. The cell plate was incubated in a carbon dioxide incubator for 10 days. To the cell plate was added 25 μL of Promega CellTiter-Glo reagent per well and the mixture was shaken for 10 minutes at room temperature to stabilize the luminescence signal. Readings were performed on a PerkinElmer Envision multilabel plate reader.
Data analysis: Raw data were converted into inhibition rate using the formula: (Max−Ratio)/(Max−Min)*100%. The IC50 values could then be derived from four-parameter curve fitting. (derived from 205 mode in XLFIT5, iDBS)
The compounds were tested for inhibitory activity of compounds on NCI-H1417 cell proliferation, and the results are shown in Table 3.

Structure (SMILES)	IC50 (human LSD1)	IC50 (NCI-H1417 cells)
Cn1nnc2cc(-c3sc(C(=O)N4C5CCC4C(N)C5)cc3-c3ccc(C#N)c(F)c3)ccc21 (stereo not drawn) [Compound 14]	5.37 nM	0.54 nM
CC(C)(O)c1ccc(-c2sc(C(=O)N3CCC[C@@H](N)C3)cc2-c2ccc(C#N)c(F)c2)cc1 [Compound 50]	28.3 nM	9.19 nM
CC(C)(O)Cn1ncc2cc(-c3sc(C(=O)N4CCC[C@@H](N)C4)cc3-c3ccc(C#N)c(F)c3)cnc21 [Compound 60]	18.4 nM	2.36 nM
N#Cc1ccc(-c2cc(C(=O)N3CCC[C@@H](N)C3)sc2-c2ccc3nccn3c2)cc1F [Compound 74]	33.2 nM	
N#Cc1ccc(-c2cc(C(=O)N3CCC[C@@H](N)C3)sc2-c2ccn3nccc3c2)cc1F [Compound 75]	28.9 nM	28 nM
COc1ccc(-c2sc(C(=O)N3CCC4(CC3)COCC4N)cc2-c2ccc(C#N)c(F)c2)cc1F (stereo not drawn) [Hydrochloride of compound 23]	76.8 nM	
COc1ccc(-c2sc(C(=O)N3CCNC(C)CC3)cc2-c2ccc(C#N)c(F)c2)cc1F (stereo not drawn) [Hydrochloride of compound 29]	29.7 nM	17.2 nM
N#Cc1ccc(-c2cc(C(=O)N3CCC[C@@H](N)C3)sc2-c2ccc3[nH]c(=O)oc3c2)cc1F [Hydrochloride of compound 31]	26.7 nM	11.3 nM
Cn1c(=O)oc2ccc(-c3sc(C(=O)N4CCC[C@@H](N)C4)cc3-c3ccc(C#N)c(F)c3)cc21 [Hydrochloride of compound 34]	36.5 nM	9.92 nM
N#Cc1ccc(-c2cc(C(=O)N3CCC[C@@H](N)C3)sc2-c2ccc3c(c2)OCO3)cc1F [Hydrochloride of compound 37]	1.73 nM	0.93 nM
CS(=O)(=O)c1ccc(-c2sc(C(=O)N3CCC[C@@H](N)C3)cc2-c2ccc(C#N)c(F)c2)cc1 [Hydrochloride of compound 44]	70.6 nM	8.87 nM
N#Cc1ccc(-c2cc(C(=O)N3CCC[C@@H](N)C3)sc2-c2ccc(N)nc2)cc1F [Hydrochloride of compound 49]	101 nM	
Cn1cc(-c2sc(C(=O)N3CCC[C@@H](N)C3)cc2-c2ccc(C#N)c(F)c2)cn1 [Hydrochloride of compound 52]	251 nM	
N#Cc1ccc(-c2cc(C(=O)N3CCC[C@@H](N)C3)sc2-c2ccc3n[nH]cc3c2)cc1F [Hydrochloride of compound 63]		28.6 nM
Cn1cc2ccc(-c3sc(C(=O)N4CCC[C@@H](N)C4)cc3-c3ccc(C#N)c(F)c3)cc2n1 [Hydrochloride of compound 65]		11.1 nM
N#Cc1ccc(-c2cc(C(=O)N3CCC[C@@H](N)C3)sc2-c2ccc3ncncc3c2)cc1F [Hydrochloride of compound 66]	73.4 nM	
Cc1c2cc(-c3sc(C(=O)N4CCC[C@@H](N)C4)cc3-c3ccc(C#N)c(F)c3)ccc2nn1C [Hydrochloride of compound 71]		0.64 nM
CN(C)[C@@H]1CCCN(C(=O)c2cc(-c3ccc(C#N)c(F)c3)c(-c3cc4nnn(CC(C)(C)O)c4c(F)c3F)s2)C1 [Hydrochloride of compound 106]		0.19 nM
CN[C@@H]1CCCN(C(=O)c2cc(-c3ccc(C#N)c(F)c3)c(-c3ccc(N4CC[C@H](O)C4)cc3F)s2)C1 [Hydrochloride of compound 115]		1.94 nM

The next lines start with the values.

IC50 (human LSD1)	IC50 (NCI-H1417 cells)	Structure (SMILES)
95.6 nM	18.7 nM	COc1ccc(-c2sc(C(=O)N3CCCN(CC#N)CC3)cc2-c2ccc(C#N)c(F)c2)cc1F [Compound 40]
10.4 nM	1.53 nM	CC(C)(O)Cn1ncc2cc(-c3sc(C(=O)N4CCC[C@@H](N)C4)cc3-c3ccc(C#N)c(F)c3)ccc21 [Compound 57]
20.4 nM	3.56 nM	CC(C)(O)Cn1cc2cc(-c3sc(C(=O)N4CCC[C@@H](N)C4)cc3-c3ccc(C#N)c(F)c3)ccc2n1 [Compound 58]
47.4 nM		N#Cc1ccc(-c2cc(C(=O)N3CCC[C@@H](N)C3)sc2-c2ccn3cncc3c2)cc1F [Compound 78]
13.2 nM	25.9 nM	N#Cc1ccc(-c2cc(C(=O)N3CCC[C@@H](N)C3)sc2-c2ccn3ccnc3c2)cc1F [Compound 84]
13.1 nM	9.83 nM	CN[C@@H]1CCCN(C(=O)c2cc(-c3ccc(C#N)c(F)c3)c(-c3ccc(N4CC(C)(O)C4)cc3)s2)C1 [Compound 122]
6.6 nM	18.2 nM	COc1ccc(-c2sc(C(=O)N3CCC[C@H](N)C3)cc2-c2ccc(C#N)c(F)c2)cc1F [Hydrochloride of compound 18]
64.8 nM		COc1ccc(-c2sc(C(=O)N3CC[C@H](F)[C@@H](N)C3)cc2-c2ccc(C#N)c(F)c2)cc1F [Hydrochloride of compound 19]
19.4 nM	32.3 nM	COc1ccc(-c2sc(C(=O)N3CC[C@@H](F)[C@@H](N)C3)cc2-c2ccc(C#N)c(F)c2)cc1F [Hydrochloride of compound 20]
19.4 nM	6.83 nM	COc1ccc(-c2sc(C(=O)N3CCC[C@@H](N)C3)cc2-c2ccc(C#N)c(F)c2)c(F)c1 [Hydrochloride of compound 21]
70.9 nM	30.6 nM	COc1ccc(-c2sc(C(=O)N3CCC(N(C)C)C3)cc2-c2ccc(C#N)c(F)c2)cc1F (stereo not drawn) [Hydrochloride of compound 24]
63.9 nM		COc1ccc(-c2sc(C(=O)N3CCCNCC3C)cc2-c2ccc(C#N)c(F)c2)cc1F (stereo not drawn) [Hydrochloride of compound 25]
19.6 nM	6.87 nM	COc1ccc(-c2sc(C(=O)N3CCCC(N(C)C)C3)cc2-c2ccc(C#N)c(F)c2)cc1F (stereo not drawn) [Hydrochloride of compound 26]
48.2 nM		COc1ccc(-c2sc(C(=O)N[C@@H]3CCNC3)cc2-c2ccc(C#N)c(F)c2)cc1F [Hydrochloride of compound 27]
38 nM	16.2 nM	N#Cc1ccc(-c2cc(C(=O)N3CCC[C@@H](N)C3)sc2-c2ccnc(N)c2)cc1F [Hydrochloride of compound 33]
24.6 nM	8.84 nM	CN1Cc2ccc(-c3sc(C(=O)N4CCC[C@@H](N)C4)cc3-c3ccc(C#N)c(F)c3)cc2C1=O [Hydrochloride of compound 35]
48.8 nM	10.2 nM	CC(C)S(=O)(=O)c1ccc(-c2sc(C(=O)N3CCC[C@@H](N)C3)cc2-c2ccc(C#N)c(F)c2)cc1 [Hydrochloride of compound 47]
29.6 nM	16.2 nM	N#Cc1ccc(-c2cc(C(=O)N3CCC[C@@H](N)C3)sc2-c2ccc3nn(C4CCOCC4)cc3c2)cc1F [Hydrochloride of compound 64]
8.56 nM	4.47 nM	N#Cc1ccc(-c2cc(C(=O)N3CCC[C@@H](N)C3)sc2-c2ccc3nn(C4CCOC4)cc3c2)cc1F (stereo partly drawn) [Hydrochloride of compound 72]
13.6 nM	3.32 nM	N#Cc1ccc(-c2cc(C(=O)N3CCC[C@@H](N)C3)sc2-c2ccc3nn(CC4(O)CCC4)cc3c2)cc1F [Hydrochloride of compound 79]
14.2 nM	2.32 nM	N#Cc1ccc(-c2cc(C(=O)N3CCC[C@@H](N)C3)sc2-c2ccc(N3CCC(O)C3)cc2)cc1F (stereo partly drawn) [Hydrochloride of compound 85]
9.81 nM	0.43 nM	N#Cc1ccc(-c2cc(C(=O)N3CCC[C@@H](N)C3)sc2-c2cc3nnn(CC4(O)CCC4)c3c(F)c2F)cc1F [Hydrochloride of compound 92]
18 nM	4.11 nM	N#Cc1ccc(-c2cc(C(=O)N3CCC[C@@H](N)C3)sc2-c2cc3cn(CC4(O)CC4)nc3cc2F)cc1F [Hydrochloride of compound 93]
	6.14 nM	CN(C)[C@@H]1CCCN(C(=O)c2cc(-c3ccc(C#N)c(F)c3)c(-c3ccc4nn(C(C)(C)CO)cc4c3)s2)C1 [Hydrochloride of compound 105]
	2.11 nM	CN[C@@H]1CCCN(C(=O)c2cc(-c3ccc(C#N)c(F)c3)c(-c3ccc(N4CC[C@H](O)C4)cc3)s2)C1 [Hydrochloride of compound 108]
	3.98 nM	CN[C@@H]1CCCN(C(=O)c2cc(-c3ccc(C#N)c(F)c3)c(-c3ccc(N4CC[C@@H](O)C4)cc3F)s2)C1 [Hydrochloride of compound 113]
	5.18 nM	N#Cc1ccc(-c2cc(C(=O)N3CCC[C@@H](N)C3)sc2-c2ccc(N3CC[C@H](O)C3)cc2F)cc1F [Hydrochloride of compound 114]
9.27 nM		N#Cc1ccc(-c2cc(C(=O)N3CCCNCC3)sc2-c2ccc(N3CC[C@H](O)C3)cc2)cc1F [Hydrochloride of compound 116]
